Values joined by “and” are separate entries in the source; they are usually repeats but may differ in a detail not shown here. Identical values can stand only once. Inconclusive results and toxic doses are left out. Rule for the calls: active = survival T/C of 150% or more; inactive = T/C below 125% in these data.
Test system: CD2F1 mice, L1210 leukemia ip, survival T/C
Assay: NCI In Vivo Anticancer Drug Screen. Data for tumor model L1210 Leukemia (intraperitoneal) in CD2F1 (CDF1) mice
Conditions: endpoint: mean survival time, higher = longer survival
How it was run: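 Transplantable tumor in mice; compound-treated vs vehicle-treated groups. Read-out = treated/control ratio of the measured endpoint.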

[1] = dose: 100.0 mg/kg/injection, schedule: Q01DX001 (ip), vehicle: saline with Tween-80
[2] = dose: 100.0 mg/kg/injection, schedule: Q04DX002 (ip), vehicle: saline with Tween-80
[3] = dose: 200.0 mg/kg/injection, schedule: Q01DX001 (ip), vehicle: saline with Tween-80
[4] = dose: 400.0 mg/kg/injection, schedule: Q01DX001 (ip), vehicle: saline with Tween-80
[5] = dose: 25.0 mg/kg/injection, schedule: Q04DX002 (ip), vehicle: saline with Tween-80
[6] = dose: 50.0 mg/kg/injection, schedule: Q04DX002 (ip), vehicle: saline with Tween-80

Measured: T/C

CCC(c1ccc(OC(=O)Cc2ccc(N(CCCl)CCCl)cc2)cc1)C(CC)c1ccc(OC(=O)Cc2ccc(N(CCCl)CCCl)cc2)cc1 (centres undefined)
inactive: dose: 3.1 mg/kg/injection, schedule: Q03HX016 (ip), vehicle: saline with Tween-80 94 % of control | dose: 3.1 mg/kg/injection, schedule: Q03HX024 (ip), vehicle: saline with Tween-80 100 % of control | dose: 6.3 mg/kg/injection, schedule: Q03HX008 (ip), vehicle: saline with Tween-80 88 % of control | dose: 6.3 mg/kg/injection, schedule: Q03HX024 (ip), vehicle: saline with Tween-80 91 % of control | dose: 12.5 mg/kg/injection, schedule: Q01DX009 (ip), vehicle: saline with Tween-80 88 % of control | dose: 12.5 mg/kg/injection, schedule: Q01DX009 (sc), vehicle: saline with Tween-80 100 % of control | dose: 12.5 mg/kg/injection, schedule: Q03HX024 (ip), vehicle: saline with Tween-80 88 % of control | dose: 25.0 mg/kg/injection, schedule: Q01DX001 (ip), vehicle: saline with Tween-80 94 % of control | dose: 25.0 mg/kg/injection, schedule: Q01DX001 (oral), vehicle: saline with Tween-80 103 % of control | dose: 25.0 mg/kg/injection, schedule: Q01DX001 (sc), vehicle: saline with Tween-80 91 % of control | dose: 25.0 mg/kg/injection, schedule: Q01DX009 (ip), vehicle: saline with Tween-80 90 % of control | dose: 25.0 mg/kg/injection, schedule: Q01DX009 (oral), vehicle: saline with Tween-80 114 % of control | dose: 25.0 mg/kg/injection, schedule: Q01DX009 (sc), vehicle: saline with Tween-80 100 % of control | dose: 25.0 mg/kg/injection, schedule: Q03HX024 (ip), vehicle: saline with Tween-80 88 % of control | dose: 25.0 mg/kg/injection, schedule: Q04DX003 (ip), vehicle: saline with Tween-80 91 % of control | dose: 25.0 mg/kg/injection, schedule: Q08DX002 (ip), vehicle: saline with Tween-80 88 % of control | dose: 50.0 mg/kg/injection, schedule: Q01DX001 (oral), vehicle: saline with Tween-80 105 % of control | dose: 50.0 mg/kg/injection, schedule: Q01DX001 (sc), vehicle: saline with Tween-80 88 % of control | dose: 50.0 mg/kg/injection, schedule: Q01DX009 (ip), vehicle: saline with Tween-80 88 % of control | dose: 50.0 mg/kg/injection, schedule: Q01DX009 (oral), vehicle: saline with Tween-80 94 % of control | dose: 50.0 mg/kg/injection, schedule: Q01DX009 (sc), vehicle: saline with Tween-80 97 % of control | dose: 50.0 mg/kg/injection, schedule: Q03HX016 (ip), vehicle: saline with Tween-80 88 % of control | dose: 50.0 mg/kg/injection, schedule: Q03HX024 (ip), vehicle: saline with Tween-80 88 % of control | dose: 50.0 mg/kg/injection, schedule: Q04DX003 (ip), vehicle: saline with Tween-80 88 % of control | dose: 50.0 mg/kg/injection, schedule: Q08DX002 (ip), vehicle: saline with Tween-80 90 % of control | dose: 80.0 mg/kg/injection, schedule: Q01DX005 (ip), vehicle: saline with Tween-80 96 % of control | dose: 80.0 mg/kg/injection, schedule: Q01DX009 (ip), vehicle: saline with Tween-80 93 % of control | [1] 90 % of control and 95 % of control | dose: 100.0 mg/kg/injection, schedule: Q01DX001 (oral), vehicle: saline with Tween-80 105 % of control | dose: 100.0 mg/kg/injection, schedule: Q01DX001 (sc), vehicle: saline with Tween-80 102 % of control | dose: 100.0 mg/kg/injection, schedule: Q01DX009 (ip), vehicle: saline with Tween-80 90 % of control | dose: 100.0 mg/kg/injection, schedule: Q01DX009 (oral), vehicle: saline with Tween-80 101 % of control | dose: 100.0 mg/kg/injection, schedule: Q01DX009 (sc), vehicle: saline with Tween-80 100 % of control | [2] 101 % of control | dose: 100.0 mg/kg/injection, schedule: Q04DX003 (ip), vehicle: saline with Tween-80 90 % of control | dose: 100.0 mg/kg/injection, schedule: Q08DX002 (ip), vehicle: saline with Tween-80 90 % of control | dose: 120.0 mg/kg/injection, schedule: Q01DX005 (ip), vehicle: saline with Tween-80 96 % of control | dose: 120.0 mg/kg/injection, schedule: Q01DX009 (ip), vehicle: saline with Tween-80 93 % of control | dose: 180.0 mg/kg/injection, schedule: Q01DX005 (ip), vehicle: saline with Tween-80 92 % of control | dose: 180.0 mg/kg/injection, schedule: Q01DX009 (ip), vehicle: saline with Tween-80 92 % of control | [3] 90 % of control | dose: 200.0 mg/kg/injection, schedule: Q01DX001 (oral), vehicle: saline with Tween-80 102 % of control | dose: 200.0 mg/kg/injection, schedule: Q01DX001 (sc), vehicle: saline with Tween-80 97 % of control | dose: 200.0 mg/kg/injection, schedule: Q01DX009 (ip), vehicle: saline with Tween-80 88 % of control | dose: 200.0 mg/kg/injection, schedule: Q01DX009 (oral), vehicle: saline with Tween-80 100 % of control | dose: 200.0 mg/kg/injection, schedule: Q01DX009 (sc), vehicle: saline with Tween-80 97 % of control | dose: 200.0 mg/kg/injection, schedule: Q04DX002 (ip), vehicle: saline with Tween-80 93 % of control | dose: 200.0 mg/kg/injection, schedule: Q04DX003 (ip), vehicle: saline with Tween-80 90 % of control | dose: 200.0 mg/kg/injection, schedule: Q08DX002 (ip), vehicle: saline with Tween-80 87 % of control | dose: 270.0 mg/kg/injection, schedule: Q01DX005 (ip), vehicle: saline with Tween-80 96 % of control | dose: 270.0 mg/kg/injection, schedule: Q01DX009 (ip), vehicle: saline with Tween-80 90 % of control | [4] 90 % of control | dose: 400.0 mg/kg/injection, schedule: Q01DX001 (oral), vehicle: saline with Tween-80 103 % of control | dose: 400.0 mg/kg/injection, schedule: Q01DX001 (sc), vehicle: saline with Tween-80 97 % of control | dose: 400.0 mg/kg/injection, schedule: Q01DX009 (oral), vehicle: saline with Tween-80 96 % of control | dose: 400.0 mg/kg/injection, schedule: Q04DX002 (ip), vehicle: saline with Tween-80 93 % of control | dose: 400.0 mg/kg/injection, schedule: Q08DX002 (ip), vehicle: saline with Tween-80 90 % of control | dose: 405.0 mg/kg/injection, schedule: Q01DX005 (ip), vehicle: saline with Tween-80 93 % of control | dose: 405.0 mg/kg/injection, schedule: Q01DX009 (ip), vehicle: saline with Tween-80 92 % of control | dose: 800.0 mg/kg/injection, schedule: Q01DX001 (ip), vehicle: saline with Tween-80 88 % of control and 90 % of control | dose: 800.0 mg/kg/injection, schedule: Q01DX001 (oral), vehicle: saline with Tween-80 97 % of control | dose: 800.0 mg/kg/injection, schedule: Q01DX001 (sc), vehicle: saline with Tween-80 90 % of control

NC(=S)NC(=S)Nc1ccc(Cl)cc1
inactive: [5] 98 % of control | [6] 98 % of control | [2] 98 % of control

CCC(=O)c1ccc(OCOc2ccc(C(=O)CC)cc2OC)c(OC)c1
inactive: dose: 100.0 mg/kg/injection, schedule: Q01DX001 (ip), vehicle: saline 94 % of control | dose: 200.0 mg/kg/injection, schedule: Q01DX001 (ip), vehicle: saline 96 % of control | dose: 400.0 mg/kg/injection, schedule: Q01DX001 (ip), vehicle: saline 91 % of control

O=N[O-].O=N[O-].[Co].[NH2-].[NH2-].[NH2-].[NH2-]
inactive: [5] 93 % of control | [6] 101 % of control | [2] 101 % of control

O=C(Nc1ccccc1)Nc1ccccc1C(=O)O
inactive: [1] 100 % of control | [3] 95 % of control | [4] 94 % of control
